Experimental data as given in PubChem BioAssay (NCI).
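Assay format: 96-well plates, 48-hour exposure. GI50 is the concentration that inhibits growth by half. TGI is the concentration that stops growth completely.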

How the values were obtained:
Experiment in all cases: NCI anticancer screen, dose series, 48 h
ACHN renal = test system: ACHN renal
CCRF-CEM leukemia = test system: CCRF-CEM leukemia
DU-145 prostate = test system: DU-145 prostate
HCC-2998 colon = test system: HCC-2998 colon
HS 578T breast = test system: HS 578T breast
LOX IMVI melanoma = test system: LOX IMVI melanoma
MOLT-4 leukemia = test system: MOLT-4 leukemia
RPMI-8226 leukemia = test system: RPMI-8226 leukemia
SW-620 colon = test system: SW-620 colon
UO-31 renal = test system: UO-31 renal

Compound: Cn1nccc1Nc1nccc(-c2cc3c(s2)C(C)(C)N(CCN2CCOCC2)C3=O)n1
- GI50 (ACHN renal): 9.53 µM
- TGI (ACHN renal): > 100 µM
- GI50 (CCRF-CEM leukemia): 23.4 µM
- TGI (CCRF-CEM leukemia): > 100 µM
- GI50 (DU-145 prostate): 25.8 µM
- TGI (DU-145 prostate): > 100 µM
- GI50 (HCC-2998 colon): 0.602 µM
- TGI (HCC-2998 colon): > 100 µM
- GI50 (HS 578T breast): 15.9 µM
- TGI (HS 578T breast): > 100 µM
- GI50 (LOX IMVI melanoma): 0.734 µM
- TGI (LOX IMVI melanoma): > 100 µM
- GI50 (MOLT-4 leukemia): 25.7 µM
- TGI (MOLT-4 leukemia): > 100 µM
- GI50 (RPMI-8226 leukemia): 23.3 µM
- TGI (RPMI-8226 leukemia): > 100 µM
- GI50 (SW-620 colon): 1.22 µM
- TGI (SW-620 colon): > 100 µM
- GI50 (UO-31 renal): 3.76 µM
- TGI (UO-31 renal): > 100 µM

Compound: CC[C@@H](C(=O)[C@@H](C)[C@@H](O)[C@H](C)[C@@H]1O[C@@H]([C@@H](CC)C(=O)O)CC[C@@H]1C)C1O[C@]2(C=CC(=O)[C@]3(CC[C@@](C)([C@H]4CC[C@](O)(CC)[C@H](C)O4)O3)O2)[C@H](C)C[C@@H]1C (stereo not given in full)
- GI50 (ACHN renal): 1.33 µM
- TGI (ACHN renal): 14.9 µM
- GI50 (CCRF-CEM leukemia): 0.278 µM
- TGI (CCRF-CEM leukemia): 9.3 µM
- GI50 (DU-145 prostate): 1.43 µM
- TGI (DU-145 prostate): 18 µM
- GI50 (HCC-2998 colon): 0.152 µM
- TGI (HCC-2998 colon): 12.6 µM
- GI50 (HS 578T breast): 0.183 µM
- TGI (HS 578T breast): 14.9 µM
- GI50 (LOX IMVI melanoma): 0.71 µM
- TGI (LOX IMVI melanoma): 13.8 µM
- GI50 (MOLT-4 leukemia): 1.42 µM
- TGI (MOLT-4 leukemia): 6.3 µM
- GI50 (RPMI-8226 leukemia): 0.0868 µM
- TGI (RPMI-8226 leukemia): 4.81 µM
- GI50 (SW-620 colon): 0.827 µM
- TGI (SW-620 colon): 12.8 µM
- GI50 (UO-31 renal): 1.19 µM
- TGI (UO-31 renal): 11 µM

Compound: O=C1NN(c2ccc(C(=O)O)cc2)C(=O)/C1=C\c1ccc([N+](=O)[O-])o1
- GI50 (ACHN renal): 24.4 µM
- TGI (ACHN renal): 55.3 µM
- GI50 (CCRF-CEM leukemia): 22.7 µM
- TGI (CCRF-CEM leukemia): 61.8 µM
- GI50 (DU-145 prostate): 85.6 µM
- TGI (DU-145 prostate): > 100 µM
- GI50 (HCC-2998 colon): > 100 µM
- TGI (HCC-2998 colon): > 100 µM
- GI50 (HS 578T breast): > 100 µM
- TGI (HS 578T breast): > 100 µM
- GI50 (LOX IMVI melanoma): 11.1 µM
- TGI (LOX IMVI melanoma): 31.2 µM
- GI50 (MOLT-4 leukemia): 33.4 µM
- TGI (MOLT-4 leukemia): > 100 µM
- GI50 (RPMI-8226 leukemia): 30.6 µM
- TGI (RPMI-8226 leukemia): 83.8 µM
- GI50 (SW-620 colon): 20 µM
- TGI (SW-620 colon): 47.3 µM
- GI50 (UO-31 renal): 59.1 µM
- TGI (UO-31 renal): > 100 µM

Compound: C/C=C(\C)C(=O)N[C@H]1CC[C@]2(C)C3CC[C@@]4(C)C(CC[C@@H]4C(C)N(C)C)C3CCC2[C@H]1OC(C)=O (stereo not given in full)
- GI50 (ACHN renal): 1.98 µM
- TGI (ACHN renal): 4.2 µM
- GI50 (CCRF-CEM leukemia): 1.97 µM
- TGI (CCRF-CEM leukemia): 6.19 µM
- GI50 (DU-145 prostate): 2.85 µM
- TGI (DU-145 prostate): 10.9 µM
- GI50 (HCC-2998 colon): 1.56 µM
- TGI (HCC-2998 colon): 2.97 µM
- GI50 (HS 578T breast): 1.75 µM
- TGI (HS 578T breast): 4.7 µM
- GI50 (LOX IMVI melanoma): 1.42 µM
- TGI (LOX IMVI melanoma): 2.78 µM
- GI50 (MOLT-4 leukemia): 1.58 µM
- TGI (MOLT-4 leukemia): 3.91 µM
- GI50 (RPMI-8226 leukemia): 1.62 µM
- TGI (RPMI-8226 leukemia): 4.68 µM
- GI50 (SW-620 colon): 1.53 µM
- TGI (SW-620 colon): 3.05 µM
- GI50 (UO-31 renal): 1.24 µM
- TGI (UO-31 renal): 2.54 µM
